In patent US11273163B2, “Antiviral treatment” (priority 2020, dated 2022):
“And” between values parts separate entries of the source, which are not always exact repeats. Identical values can stand only once. Like-named read-outs stand apart in the source and are kept apart here.

Tests used:
SARS-CoV-2 [1] = assay type: cell-based; conditions: for cytopathogenic score: Vero E6, MOI 0.1, 48 hours post infection
SARS-CoV-2 [2] = assay type: cell-based; conditions: Calu-3, MOI 0.01, 48 h
RSV Long strain [3] = assay type: cell-based, Respiratory Syncytial Virus; conditions: all 3 settings (preventive, co-administration, therapeutic), 48 h
HEp-2 cells = experiment: Cytotoxicity towards HEp-2 cells, flow cytometry with propidium iodide; assay type: cell-based; conditions: non-infected, 48 h
Description: Mean and SEM were calculated from 3 independent experiments.

RSV Long strain [4] = assay type: cell-based, Respiratory Syncytial Virus; conditions: 6.4 μM
influenza H1N1 = assay type: cell-based, influenza A virus H1N1; conditions: hydrochloride
SARS-CoV-2 B.1.351 = experiment: microbe, parasite or virus in culture; assay type: cell-based; conditions: Severe acute respiratory syndrome coronavirus 2, Vero/TMPRSS2, 48 h, read-out: inhibition of infection (relative to no azelastine treated cells)
[5] = test system: reconstituted human nasal tissue (MucilAir); conditions: without virus infection
SARS-CoV-2 [6] = experiment: microbe, parasite or virus in culture; assay type: cell-based; conditions: for reduction of viral particle numbers: up to; for viral particle/μL: 48 h post infection, median
SARS-CoV-2 B.1.1.7 = experiment: microbe, parasite or virus in culture; assay type: cell-based; conditions: Severe acute respiratory syndrome coronavirus 2, Vero/TMPRSS2, 48 h, B1.1.7, 48 h, read-out: inhibition of infection (relative to no azelastine treated cells)

## Maraviroc
SARS-CoV-2 [1]; 3.125 μM
  cytopathogenic score: 4
SARS-CoV-2 [1]; 6.25 μM
  cytopathogenic score: 4
SARS-CoV-2 [1]; 12.5 μM
  cytopathogenic score: 3
SARS-CoV-2 [1]; 25 μM
  cytopathogenic score: 3
SARS-CoV-2 [1]; 50 μM
  cytopathogenic score: 3
SARS-CoV-2 [1]; higher concentrations (12.5 to 50 μM)
  protective effect: only marginal protective effect
SARS-CoV-2 [1]; lower concentrations
  protective effect: not effective at all

## CN1CCCC(n2nc(Cc3ccc(Cl)cc3)c3ccccc3c2=O)CC1.Cl (stereo not shown) [Azelastine-HCl, 4-[(4-chlorophenyl)methyl]-2-(1-methylazepan-4-yl)phthalazin-1-one; hydrochloride]
SARS-CoV-2 [2]; 25 μM
  reduction of viral particle numbers: over 90%
SARS-CoV-2 [2]; 50 μM, up to
  reduction of viral particle numbers: > 99%
RSV Long strain [3]; 3.2 μM
  RSV infection of cells by spot count, compared to vehicle (DMSO) treated controls: ~50%
RSV Long strain [3]; 6.4 μM
  RSV infection of cells by spot count, compared to vehicle (DMSO) treated controls: ~50%
HEp-2 cells; 12.8 μM
  cytotoxicity to HEp-2 cells: showed cytotoxicity
HEp-2 cells; 25.6 μM
  cytotoxicity to HEp-2 cells: showed cytotoxicity
SARS-CoV-2 [1]; 3.125 μM
  cytopathogenic score: 2
SARS-CoV-2 [1]; 6.25 μM
  cytopathogenic score: 2
RSV Long strain [4]; co-administration, experiment #1
  Ct (cycle threshold in PCR reaction): 27.99
RSV Long strain [4]; co-administration, experiment #2
  Ct (cycle threshold in PCR reaction): 27.21
RSV Long strain [4]; preventive, experiment #1
  Ct (cycle threshold in PCR reaction): 27.5
RSV Long strain [4]; preventive, experiment #2
  Ct (cycle threshold in PCR reaction): 27.17
RSV Long strain [4]; therapeutic, experiment #1
  Ct (cycle threshold in PCR reaction): 27.95
RSV Long strain [4]; therapeutic, experiment #2
  Ct (cycle threshold in PCR reaction): 27.27
Influenza H1N1
  reduction in viral genome copy: 98.74% and 87.4%

## CN1CCCC(n2nc(Cc3ccc(Cl)cc3)c3ccccc3c2=O)CC1 (stereo not shown) [Azelastine, 4-[(4-chlorophenyl)methyl]-2-(1-methylazepan-4-yl)phthalazin-1-one]
SARS-CoV-2 B.1.351; preventive setting
  inhibition at 3.125 µM: 32.9%
  inhibition at 6.25 µM: 74.9%
  inhibition at 12.5 µM: 99.1%
SARS-CoV-2 B.1.351; therapeutic setting
  inhibition at 3.125 µM: 22%
  inhibition at 6.25 µM: 55%
  inhibition at 12.5 µM: 97.6%
[5]
  tissue morphology versus control: No difference in tissue morphology
SARS-CoV-2 [6]; Severe acute respiratory syndrome coronavirus 2, Vero C1008, wild-type SARS-CoV-2, read-out: EC50 observed for the wild-type virus
  EC50: ~6 µM
SARS-CoV-2 [6]; co-administration (simulating prevention)
  reduction of viral particle numbers: > 99%
SARS-CoV-2 [6]; co-administration, 3.125 μM
  viral particle/μL: 98.4 viral particle/μL
SARS-CoV-2 [6]; co-administration, 6.25 μM
  viral particle/μL: 15.45 viral particle/μL
SARS-CoV-2 [6]; co-administration, 12.5 μM
  viral particle/μL: 12.25 viral particle/μL
SARS-CoV-2 [6]; co-administration, 25 μM
  viral particle/μL: 0.2 viral particle/μL
SARS-CoV-2 [6]; post-infection administration, 3.125 μM
  viral particle/μL: 138 viral particle/μL
SARS-CoV-2 [6]; post-infection administration, 6.25 μM
  viral particle/μL: 68.4 viral particle/μL
SARS-CoV-2 [6]; post-infection administration, 12.5 μM
  viral particle/μL: 52 viral particle/μL
SARS-CoV-2 [6]; post-infection administration, 25 μM
  viral particle/μL: 6.865 viral particle/μL
SARS-CoV-2 [6]; post-infection administration
  reduction of viral particle numbers: > 97%
SARS-CoV-2 B.1.1.7; preventive setting
  inhibition at 3.125 µM: 23.8%
  inhibition at 6.25 µM: 72.8%
  inhibition at 12.5 µM: 98.8%
SARS-CoV-2 B.1.1.7; therapeutic setting
  inhibition at 3.125 µM: 2.57%
  inhibition at 6.25 µM: 47.4%
  inhibition at 12.5 µM: 91.7%
